For 29 compounds, IC50 results are on record in patent US20060063784A1, “Method of using substituted pyrazolo [1,5-a] pyrimidines” (priority 2004, published 2006).

The test system of one assay is LoVo Colon cell line. Nature of the assay: Cytotoxicity assay using LoVo colon cell line, SRB. The assay is classed as cell-based. Particulars: read-out: Inhibition of LoVo. How it is done:
Cytotoxicity Assay Using LoVo Colon Cell Line: • 1. LoVo Colon cell lines were cultured in RPMI 1640 medium (Gibco/Invitrogen Life Sciences) supplemented with 10% fetal bovine serum (FBS, Gibco) and 50 μg/ml entamicin (Gibco). Cells were maintained at 37° C. under 7% CO2. • 2. Cells were seeded in 96-well microtiter plates (Corning/Costar) in a volume of 0.15 ml of growth medium (4000 cells/well). Plates were incubated at 37° C. overnight (18-24 hours). • 3. Serial dilutions of the test agent were added to each well. Dilutions were prepared in growth medium. One of two dose ranges was used: 5 pM to 20 μM or 170 pg/ml to 10 μg/ml. Cells were incubated with the test compounds for 4 days at 37° C. • 4. Surviving cells were processed using the SRB asay, as described above.
5. The drug concentration that inhibits cell proliferation by 50% relative to untreated controls (IC50) was determined from cytotoxicity curves using the LSW Toolbox graphing application.

The subject of assay [1] is 80S14 (p21-deficient) cells. Description: Cytotoxicity assay using isogenic cell lines: IC50 in 80S14 (p21-deficient) cells, SRB. Type of assay: cell-based, human. The essentials:
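80S14 (p21-deficient) cells seeded at 12,000 cells/well overnight, then exposed 5 days at 37 °C to serial dilutions (5 pM–50 μM or 170 pg/ml–10 μg/ml). TCA-fixed, sulforhodamine B-stained, absorbance at 560 nm; IC50 taken from cytotoxicity curves versus untreated controls.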

The mark [2] stands for this setting: Homo sapiens, 96 h, Cellular activity in LoVo cell, 4 days incubation, SRB.
The mark [3] stands for this setting: Homo sapiens, 120 h, 80S14 (p21-deficient) cells, 5 days, SRB, class symbols, read-out: IC50 for 80S14.
Setting [4] is: Homo sapiens, 96 h, LoVo colon cells, 4 days incubation, SRB.
Where [5] appears, read: Homo sapiens, 120 h, 80S14 p21-deficient cells, 5 days incubation, SRB, read-out: IC50 for 80SI4.
Where [6] appears, read: Homo sapiens, 80S14, 120 h, read-out: IC50 for 80S14 (uM).
Setting [7] is: Cellular activity in LoVo cell, 4 days incubation, SRB.
[8] abbreviates: 80S14 (p21-deficient) cells, 5 days, SRB, class symbols, read-out: IC50 for 80S14.

Read-outs that look alike come from different tables or passages of the source. Bounds are passed on as bounds.

Consider `O=C(c1cccs1)c1cnn2c(-c3ccc(F)c(N(C(=O)OCC(Cl)(Cl)Cl)C(=O)OCC(Cl)(Cl)Cl)c3)ccnc12` [Example 357, bis(2,2,2-Trichloroethyl) 2-fluoro-5-[3-(thien-2-ylcarbonyl)pyrazolo[1,5-a]pyrimidin-7-yl]phenylimidodicarbonate], for which the IC50 is < 100 nM in the assay with LoVo Colon cell line (setting [2]) and < 1 µM in assay [1] (setting [3]).
Take `O=C(Nc1cccc(-c2ccnc3c(C(=O)c4cccs4)cnn23)c1)OC1CCCCC1` [Example 172, cyclohexyl 3-(3-(thien-2-ylcarbonyl)pyrazolo[1,5-a]pyrimidin-7-yl]phenylcarbamate]: the IC50 with LoVo Colon cell line (setting [4]) was < 100 nM; in assay [1] (setting [5]), < 1 µM.
On to `CC(C)CC(=O)Nc1cccc(-c2ccnc3c(-c4cccc(C(F)(F)F)c4)cnn23)c1` [Example 477, 3-Methyl-N-(3-{3-[3-(trifluoromethyl)phenyl]pyrazolo[1,5-a]pyrimidin-7-yl}phenyl)butanamide], for which the IC50 in the assay on LoVo Colon cell line (setting [2]) was 1000 to 20000 nM; in assay [1] (setting [3]), 10 to 50 µM.
As for `Nc1cc(-c2ccnc3c(C(=O)c4cccs4)cnn23)ccc1F` [Example 352, [7-(3-Amino-4-fluorophenyl)pyrazolo[1,5-a]pyrimidin-3-yl](thien-2-yl)methanone], the IC50 with LoVo Colon cell line (setting [2]) was in the range of 1000 to 20000 nM; in assay [1] (setting [3]), 1 to 10 µM.
Take `CC(C)CC(=O)Nc1ccc(Cl)c(-c2ccnc3c(C(=O)c4cccs4)cnn23)c1` [Example 339, N-{4-Chloro-3-[3-(thien-2-ylcarbonyl)pyrazolo[1,5-a]pyrimidin-7-yl]phenyl}-3-methylbutanamide]: the IC50 in the assay on LoVo Colon cell line (Homo sapiens, LoVo, 96 h) is 100 to 1000 nM; in assay [1] (setting [6]) it was 1 to 10 µM.
For the compound “[7-[3-(2-Methyl-1H-imidazol-1-yl)phenyl]-pyrazolo[1,5-a]pyrimidin-3-vy]-2-thienyl-methanone [Example 245]”, the IC50 in the assay on LoVo Colon cell line (setting [7]) is 1000 to 20000 nM; in assay [1] (setting [8]) it was 10 to 50 µM.
As for `C/C=C/CNc1cccc(-c2ccnc3c(C(=O)c4cccs4)cnn23)c1` [Example 370, (7-{3-[(2E)-But-2-enylamino]phenyl}pyrazolo[1,5-a]pyrimidin-3-yl)(thien-2-yl)methanone], the results for the IC50 (in the assay with LoVo Colon cell line (setting [2]); in assay [1] (setting [3])) were < 100 nM and < 1 µM, respectively.
Consider `CCCCCCCCCC(C)CNc1cccc(-c2ccnc3c(C(=O)c4cccs4)cnn23)c1` (stereo not shown) [Example 447, (7-{3-[(2-Methylundecyl)amino]phenyl}pyrazolo[1,5-a]pyrimidin-3-yl)(thien-2-yl)methanone], for which the IC50 in the assay with LoVo Colon cell line (setting [2]) lay in the range of 1000 to 20000 nM; in assay [1] (setting [3]) it was 10 to 50 µM.
Turning to “N-{4-Chloro-3-[3-(thien-2-ylcarbonyl)pyrazolo[1,5-a]yrimidin-7-yl]phenyl}-N′-isopropylthiourea [Example 340]”, the IC50 in the assay with LoVo Colon cell line (setting [7]) was in the range of 100 to 1000 nM; in assay [1] (setting [8]), 1 to 10 µM.
`O=C(CCCN1CCOCC1)Nc1cccc(-c2ccnc3c(C(=O)c4cccs4)cnn23)c1` [Example 423, 4-Morpholin-4-yl-N-{3-[3-(thien-2-ylcarbonyl)pyrazolo[1,5-a]pyrimidin-7-yl]phenyl}butanamide]: the IC50 in the assay with LoVo Colon cell line (setting [2]) lay in the range of 100 to 1000 nM; in assay [1] (setting [3]), 1 to 10 µM.
As for `O=C(c1cccs1)c1cnn2c(-c3cccc(-c4ccn(CC5CCC5)n4)c3)ccnc12` [Example 515, (7-{3-[1-(Cyclobutylmethyl)-1H-pyrazol-3-yl]phenyl}pyrazolo[1,5-a]pyrimidin-3-yl)(thien-2-yl)methanone], the IC50 is < 100 nM in the assay on LoVo Colon cell line (setting [2]) and < 1 µM in assay [1] (setting [3]).
As to `O=C(c1cccs1)c1cnn2c(-c3cccc(NC(=O)C4CCCCC4)c3)ccnc12` [Example 282, N-{3-[3-(2-Thienylcarbonyl)pyrazolo[1,5-a]pyrimidin-7-yl]phenyl}cyclohexanecarboxamide], the results for the IC50 (with LoVo Colon cell line (setting [2]); in assay [1] (setting [3])) were 100 to 1000 nM and < 1 µM, respectively.
As for `O=C(Nc1cc(-c2ccnc3c(C(=O)c4cccs4)cnn23)ccc1F)c1ccccc1Cl` [Example 376, 2-Chloro-N-{2-fluoro-5-[3-(thien-2-ylcarbonyl)pyrazolo[1,5-a]pyrimidin-7-yl]phenyl}benzamide], the IC50 in the assay with LoVo Colon cell line (setting [2]) was < 100 nM; in assay [1] (setting [3]), < 1 µM.
The corresponding values for `CC(C)(C)CC(=O)Nc1cc(-c2ccnc3c(C(=O)c4cccs4)cnn23)ccc1F` [Example 355, N-{2-Fluoro-5-[3-(thien-2-ylcarbonyl)pyrazolo[1,5-a]pyrimidin-7-yl]phenyl}-3,3-dimethylbutanamide] are < 100 nM and < 1 µM.
Take `CC(C)CC(=O)Nc1cccc(-c2ccnc3c(-c4cccc5cccnc45)cnn23)c1` [Example 468, 3-Methyl-N-[3-(3-quinolin-8-ylpyrazolo[1,5-a]pyrimidin-7-yl)phenyl]butanamide]: the IC50 in the assay on LoVo Colon cell line (setting [2]) lay within 100 to 1000 nM; in assay [1] (setting [3]) it was 1 to 10 µM.
`CC(CCNc1cccc(-c2ccnc3c(C(=O)c4cccs4)cnn23)c1)CC(C)(C)C` (stereo not shown) [Example 433, Thien-2-yl(7-{3-[(3,5,5-trimethylhexyl)amino]phenyl}pyrazolo[1,5-a]pyrimidin-3-yl)methanone]: the IC50 in the assay with LoVo Colon cell line (setting [2]) lay within 100 to 1000 nM; in assay [1] (setting [3]), 1 to 10 µM.
The corresponding values for `O=C(c1cccs1)c1cnn2c(-c3cccc(N4CCCC4=O)c3)ccnc12` [Example 437, 1-{3-[3-(Thien-2-ylcarbonyl)pyrazolo[1,5-a]pyrimidin-7-yl]phenyl}pyrrolidin-2-one] are < 100 nM and < 1 µM.
Consider `C=C(C)C(=O)Nc1cccc(-c2ccnc3c(C(=O)c4cccs4)cnn23)c1` [Example 44, 2-methyl-N-{3-[3-(thien-2-ylcarbonyl)pyrazolo[1,5-a]pyrimidin-7-yl]phenyl}acrylamide], for which, in the assay with LoVo Colon cell line (setting [4]), the IC50 was < 100 nM.
As to `CCN(C(=O)C1CC1)c1cccc(-c2ccnc3c(C(=O)c4ccco4)cnn23)c1` [Example 257, N-Ethyl-N-[3-[3-(2-furanylcarbonyl)pyrazolo[1,5-a]pyrimidin-7-yl]phenyl}-cyclopropanecarboxamide], the IC50 in assay [1] (setting [3]) was 10 to 50 µM.
`CN(C(=O)O)c1cccc(-c2ccnc3c(C(=O)c4cccs4)cnn23)c1` [Example 239, Methyl [3-[3-(2-thienylcarbonyl)pyrazolo-[1,5-a]pyrimidin-7-yl]phenyl}-carbamic acid]: the IC50 in assay [1] (setting [3]) was 1 to 10 µM.
Consider `CC(C)CC(=O)Nc1cccc(-c2ccnc3c(C(=O)c4cccs4)cnn23)c1` [Example 47, 3-methyl-N-{3-[3-(thien-2-ylcarbonyl)pyrazolo[1,5-a]pyrimidin-7-yl]phenyl}butanamide], for which the IC50 in assay [1] (Homo sapiens, 80S14, 120 h, read-out: IC50 for 80SI4 (uM)) was < 1 µM.
For `N[C@@H](Cc1ccccc1)C(=O)Nc1cccc(-c2ccnc3c(C(=O)c4cccs4)cnn23)c1` [Example 81, N-{3-[3-(thien-2-ylcarbonyl)pyrazolo[1,5-a]pyrimidin-7-yl]phenyl}-L-phenylalaninamide], in assay [1] (setting [5]), the IC50 lay in the range of 10 to 50 µM.
Take `CC(C)CC(=O)Nc1cccc(-c2ccnc3c(C(=O)C4CCCC4)cnn23)c1` [Example 296, N-{3-[3-(Cyclopentylcarbonyl)pyrazolo[1,5-a]pyrimidin-7-yl]phenyl}-3-methylbutanamide]: the IC50 in assay [1] (setting [6]) was 1 to 10 µM.
Take `CN(C)CCNC(=O)Nc1cccc(-c2ccnc3c(C(=O)c4cccs4)cnn23)c1` [Example 161, N-[2-(dimethylamino)ethyl]-N′-{3-[3-(thien-2-ylcarbonlyl)pyrazolo[1,5-a]pyrimidin-7-yl]phenyl}urea]: the IC50 in assay [1] (80S14 p21-deficient cells, 5 days incubation, SRB, read-out: IC50 for 80SI4) fell in the range of 10 to 50 µM.
As to `O=C(c1cccs1)c1cnn2c(-c3cc([N+](=O)[O-])ccc3Cl)ccnc12` [Example 336, [7-(2-Chloro-5-nitrophenyl)pyrazolo[1,5-a]pyrimidin-3-yl](thien-2-yl)methanone], the IC50 in assay [1] (setting [3]) was in the range of 10 to 50 µM.
`CCOC(=O)NCC(=O)Nc1cccc(-c2ccnc3c(C(=O)c4cccs4)cnn23)c1` [Example 113, ethyl 2-oxo-2-({3-[3-(thien-2-ylcarbonyl)pyrazolo[1,5-a]pyrimidin-7-yl]phenyl}amino)ethylcarbamate]: the IC50 in assay [1] (setting [5]) lay within 1 to 10 µM.
For `Cc1cc(-c2cccc(NC(=O)C3CO3)c2)n2ncc(C(=O)c3cccs3)c2n1` (stereo not shown) [Example 278, {3-[5-Methyl-3-(2-thienylcarbonyl)pyrazolo[1,5-a]pyrimidin-7-yl]phenyl}-2-oxiranecarboxamide], the IC50 in assay [1] (setting [8]) was < 1 µM.
In the case of `COc1ccc(-c2ccnc3c(C(=O)c4cccs4)cnn23)cc1NC(=O)NC(C)C` [Example 323, N-Isopropyl-N′-{2-methoxy-5-[3-(2-thienylcarbonyl)pyrazolo[1,5-a]pyrimidin-7-yl]phenyl}urea], the IC50 in assay [1] (setting [3]) was in the range of 1 to 10 µM.
As for “tert-Butyl 4-[({3-[3-[3-(thien-2-ylcarbonyl)pyrazolo[1,5-a]pryimidin-7-yl]phenyl}amino)carbonyl]piperidine-1-carboxylate [Example 405]”, the IC50 in assay [1] (setting [8]) was in the range of 1 to 10 µM.
